Assay results from ChEMBL document CHEMBL5291721, “A preclinical secondary pharmacology resource illuminates target-adverse drug reaction associations of marketed drugs” (Nat Commun, 2023).

Columns and labels:
[1] = molecular target: T1, Alpha-2A adrenergic receptor (Homo sapiens, UniProt P08913); assay type: functional, cell-based
T1 sequence (P08913 whole entry): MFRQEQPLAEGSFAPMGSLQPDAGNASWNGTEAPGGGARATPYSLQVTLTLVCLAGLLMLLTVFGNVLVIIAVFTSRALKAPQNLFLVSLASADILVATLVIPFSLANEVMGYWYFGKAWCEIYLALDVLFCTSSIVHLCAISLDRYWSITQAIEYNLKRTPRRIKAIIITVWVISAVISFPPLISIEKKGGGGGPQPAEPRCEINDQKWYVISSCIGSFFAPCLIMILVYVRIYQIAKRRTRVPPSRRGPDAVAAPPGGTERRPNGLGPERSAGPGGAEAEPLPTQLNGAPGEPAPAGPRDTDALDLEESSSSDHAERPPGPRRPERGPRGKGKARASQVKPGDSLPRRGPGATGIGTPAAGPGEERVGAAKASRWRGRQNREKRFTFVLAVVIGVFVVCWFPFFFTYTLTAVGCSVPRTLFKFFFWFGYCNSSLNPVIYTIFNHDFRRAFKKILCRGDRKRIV

[2] = molecular target: Neuronal acetylcholine receptor subunit alpha-4 (Homo sapiens, UniProt P43681)
Sequence of Neuronal acetylcholine receptor subunit alpha-4 (P43681 whole entry): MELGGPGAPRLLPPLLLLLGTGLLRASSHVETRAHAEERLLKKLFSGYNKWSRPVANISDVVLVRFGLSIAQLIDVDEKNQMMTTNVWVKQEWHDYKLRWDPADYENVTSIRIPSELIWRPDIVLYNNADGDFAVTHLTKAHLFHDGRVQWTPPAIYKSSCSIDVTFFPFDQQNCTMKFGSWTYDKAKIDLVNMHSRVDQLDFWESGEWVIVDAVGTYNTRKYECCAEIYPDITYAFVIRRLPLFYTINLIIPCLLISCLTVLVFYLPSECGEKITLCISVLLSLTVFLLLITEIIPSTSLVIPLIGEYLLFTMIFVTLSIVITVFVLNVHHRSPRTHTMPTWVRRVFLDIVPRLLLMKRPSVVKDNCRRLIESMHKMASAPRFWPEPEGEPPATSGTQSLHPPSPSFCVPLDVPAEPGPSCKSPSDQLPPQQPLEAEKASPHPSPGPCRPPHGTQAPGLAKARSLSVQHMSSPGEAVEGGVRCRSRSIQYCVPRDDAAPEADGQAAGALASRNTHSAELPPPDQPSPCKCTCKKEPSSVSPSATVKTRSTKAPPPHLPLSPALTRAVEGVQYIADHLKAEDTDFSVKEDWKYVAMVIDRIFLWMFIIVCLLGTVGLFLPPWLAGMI

[3] = molecular target: Growth hormone secretagogue receptor type 1 (Homo sapiens, UniProt Q92847)
Sequence of Growth hormone secretagogue receptor type 1 (Q92847 whole entry): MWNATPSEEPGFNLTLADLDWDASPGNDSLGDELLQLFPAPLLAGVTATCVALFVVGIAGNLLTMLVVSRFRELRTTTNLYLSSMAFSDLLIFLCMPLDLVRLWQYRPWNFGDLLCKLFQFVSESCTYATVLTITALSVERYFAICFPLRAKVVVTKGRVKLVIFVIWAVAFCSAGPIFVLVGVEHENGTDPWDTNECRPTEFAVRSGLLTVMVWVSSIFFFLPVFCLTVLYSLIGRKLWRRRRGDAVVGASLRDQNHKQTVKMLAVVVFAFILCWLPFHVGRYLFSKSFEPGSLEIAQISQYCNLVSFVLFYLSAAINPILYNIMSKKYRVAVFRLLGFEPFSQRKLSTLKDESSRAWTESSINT

[4] = molecular target: Histamine H3 receptor (Homo sapiens, UniProt Q9Y5N1)
Sequence of Histamine H3 receptor (Q9Y5N1 whole entry): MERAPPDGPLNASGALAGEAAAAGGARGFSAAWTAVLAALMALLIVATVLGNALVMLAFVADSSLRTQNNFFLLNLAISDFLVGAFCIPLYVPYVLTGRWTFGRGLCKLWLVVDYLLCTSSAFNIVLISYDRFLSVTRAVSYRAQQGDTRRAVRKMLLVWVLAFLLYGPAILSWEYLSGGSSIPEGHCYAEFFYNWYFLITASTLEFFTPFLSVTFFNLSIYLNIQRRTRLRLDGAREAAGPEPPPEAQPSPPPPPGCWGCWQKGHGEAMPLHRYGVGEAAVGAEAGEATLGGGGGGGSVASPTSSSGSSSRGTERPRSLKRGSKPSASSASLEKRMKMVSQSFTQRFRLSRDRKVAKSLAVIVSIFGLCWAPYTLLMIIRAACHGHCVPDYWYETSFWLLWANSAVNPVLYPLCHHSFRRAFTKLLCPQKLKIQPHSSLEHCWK

[5] = molecular target: Beta-1 adrenergic receptor (Homo sapiens, UniProt P08588); assay type: functional
Sequence of Beta-1 adrenergic receptor (P08588 whole entry): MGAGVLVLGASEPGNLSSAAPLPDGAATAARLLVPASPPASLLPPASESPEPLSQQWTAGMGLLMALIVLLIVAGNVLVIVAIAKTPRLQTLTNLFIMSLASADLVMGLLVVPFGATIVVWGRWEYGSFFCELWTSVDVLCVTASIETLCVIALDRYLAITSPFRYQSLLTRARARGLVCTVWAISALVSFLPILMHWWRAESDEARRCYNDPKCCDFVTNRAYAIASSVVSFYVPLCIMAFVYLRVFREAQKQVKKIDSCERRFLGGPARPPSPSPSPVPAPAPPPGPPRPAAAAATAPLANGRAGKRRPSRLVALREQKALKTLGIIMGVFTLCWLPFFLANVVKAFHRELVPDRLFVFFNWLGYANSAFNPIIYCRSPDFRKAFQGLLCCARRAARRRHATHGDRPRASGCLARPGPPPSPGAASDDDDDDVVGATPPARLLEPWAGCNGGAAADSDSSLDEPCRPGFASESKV

[6] = molecular target: T2, 5-hydroxytryptamine receptor 1A (Homo sapiens, UniProt P08908); assay type: functional, cell-based
T2 sequence (P08908 whole entry): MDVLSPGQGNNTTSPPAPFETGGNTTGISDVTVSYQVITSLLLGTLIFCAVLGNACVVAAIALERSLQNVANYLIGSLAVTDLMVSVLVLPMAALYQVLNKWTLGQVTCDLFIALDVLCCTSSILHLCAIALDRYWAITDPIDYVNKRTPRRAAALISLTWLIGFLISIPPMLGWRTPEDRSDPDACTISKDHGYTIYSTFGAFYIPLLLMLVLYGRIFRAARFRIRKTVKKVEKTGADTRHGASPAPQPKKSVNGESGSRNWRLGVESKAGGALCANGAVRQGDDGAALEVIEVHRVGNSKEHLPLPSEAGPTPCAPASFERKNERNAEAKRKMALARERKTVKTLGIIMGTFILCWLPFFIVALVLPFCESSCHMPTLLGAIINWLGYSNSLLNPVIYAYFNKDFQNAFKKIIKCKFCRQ

[7] = molecular target: 5-hydroxytryptamine receptor 2B (Homo sapiens, UniProt P41595); assay type: functional, cell-based
Sequence of 5-hydroxytryptamine receptor 2B (P41595 whole entry): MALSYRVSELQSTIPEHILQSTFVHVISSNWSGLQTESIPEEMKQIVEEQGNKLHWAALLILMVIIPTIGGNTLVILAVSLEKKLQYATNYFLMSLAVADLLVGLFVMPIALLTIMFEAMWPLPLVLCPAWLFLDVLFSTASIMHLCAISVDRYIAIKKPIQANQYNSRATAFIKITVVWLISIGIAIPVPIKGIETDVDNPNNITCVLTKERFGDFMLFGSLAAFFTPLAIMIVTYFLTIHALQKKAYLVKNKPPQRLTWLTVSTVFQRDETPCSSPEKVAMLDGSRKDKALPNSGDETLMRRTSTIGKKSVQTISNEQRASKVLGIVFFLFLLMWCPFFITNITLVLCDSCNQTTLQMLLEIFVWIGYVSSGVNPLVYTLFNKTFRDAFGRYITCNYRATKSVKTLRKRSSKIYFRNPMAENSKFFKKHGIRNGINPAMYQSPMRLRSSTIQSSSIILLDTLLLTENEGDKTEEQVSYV

[8] = molecular target: D(1A) dopamine receptor (Homo sapiens, UniProt P21728); assay type: functional, cell-based
Sequence of D(1A) dopamine receptor (P21728 whole entry): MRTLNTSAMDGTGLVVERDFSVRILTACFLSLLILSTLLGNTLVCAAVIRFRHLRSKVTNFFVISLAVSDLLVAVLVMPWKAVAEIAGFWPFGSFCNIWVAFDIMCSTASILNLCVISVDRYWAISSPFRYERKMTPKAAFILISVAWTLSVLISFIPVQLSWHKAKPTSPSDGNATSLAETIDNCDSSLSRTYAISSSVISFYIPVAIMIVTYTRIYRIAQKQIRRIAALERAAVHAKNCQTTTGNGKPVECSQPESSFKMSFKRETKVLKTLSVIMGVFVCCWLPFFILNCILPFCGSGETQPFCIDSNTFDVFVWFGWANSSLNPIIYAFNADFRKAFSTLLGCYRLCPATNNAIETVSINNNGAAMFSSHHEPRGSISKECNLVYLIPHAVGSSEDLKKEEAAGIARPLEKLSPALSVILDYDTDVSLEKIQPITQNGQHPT

[9] = molecular target: T3, Progesterone receptor (Homo sapiens, UniProt P06401); assay type: functional
T3 sequence (P06401 whole entry): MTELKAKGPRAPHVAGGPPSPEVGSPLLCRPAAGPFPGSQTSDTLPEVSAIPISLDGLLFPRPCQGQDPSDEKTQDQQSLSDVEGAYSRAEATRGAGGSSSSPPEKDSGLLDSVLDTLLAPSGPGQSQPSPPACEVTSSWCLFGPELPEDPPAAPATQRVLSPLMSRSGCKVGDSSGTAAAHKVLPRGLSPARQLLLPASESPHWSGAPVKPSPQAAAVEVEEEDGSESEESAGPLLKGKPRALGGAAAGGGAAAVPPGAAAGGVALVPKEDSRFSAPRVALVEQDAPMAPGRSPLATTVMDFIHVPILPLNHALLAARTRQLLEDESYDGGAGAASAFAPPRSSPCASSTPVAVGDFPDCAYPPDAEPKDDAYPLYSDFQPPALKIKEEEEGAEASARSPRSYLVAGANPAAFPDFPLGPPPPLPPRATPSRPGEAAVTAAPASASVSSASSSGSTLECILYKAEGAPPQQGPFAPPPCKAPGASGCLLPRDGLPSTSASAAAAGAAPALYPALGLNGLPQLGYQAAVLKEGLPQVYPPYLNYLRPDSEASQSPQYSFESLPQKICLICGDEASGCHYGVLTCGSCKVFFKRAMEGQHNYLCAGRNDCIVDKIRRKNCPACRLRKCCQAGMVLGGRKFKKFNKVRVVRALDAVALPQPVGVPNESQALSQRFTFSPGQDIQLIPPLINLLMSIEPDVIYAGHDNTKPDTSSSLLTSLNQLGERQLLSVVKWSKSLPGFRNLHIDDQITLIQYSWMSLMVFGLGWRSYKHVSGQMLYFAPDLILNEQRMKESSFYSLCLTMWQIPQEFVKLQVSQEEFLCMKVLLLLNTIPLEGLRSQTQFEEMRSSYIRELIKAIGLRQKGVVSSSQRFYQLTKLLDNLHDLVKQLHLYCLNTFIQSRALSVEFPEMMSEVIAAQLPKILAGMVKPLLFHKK
Also: assay procedure not described here.

| SMILES | AC50 [1] [µM] | AC50 [2] [µM] | AC50 [3] [µM] | AC50 [4] [µM] | AC50 [5] [µM] | AC50 [6] [µM] | AC50 [7] [µM] | AC50 [8] [µM] | AC50 [9] [µM] |
| --- | --- | --- | --- | --- | --- | --- | --- | --- | --- |
| CC[C@@H](CO)NC(=O)[C@@H]1C=C2c3cccc4c3c(cn4C)C[C@H]2N(C)C1 [METHYSERGIDE] | 11 | > 10 | > 30 | > 10 |  |  |  |  |  |
| CC(C)[C@H](N)C(=O)OCCOCn1cnc2c(=O)[nH]c(N)nc21 [VALACYCLOVIR] | > 10 | > 10 | > 30 | > 10 | > 10 | > 10 | > 10 | > 10 |  |
| CC(C)(O/N=C(\C(=O)N[C@@H]1C(=O)N2C(C(=O)[O-])=C(C[n+]3ccccc3)CS[C@H]12)c1csc(N)n1)C(=O)O [CEFTAZIDIME] | > 300 | > 300 | > 300 | > 300 | > 300 | > 300 | > 300 | > 300 |  |
| C[N+](C)(C)CCOP(=O)(O)OP(=O)([O-])OC[C@H]1O[C@@H](n2ccc(N)nc2=O)[C@H](O)[C@@H]1O [CITICOLINE] | > 30 |  |  |  |  |  | > 30 | > 30 |  |
| COc1ccccc1OC1(C)OC(=O)c2ccccc2O1 (stereo not drawn) [GUAIMESAL] |  | > 30 | > 30 | > 30 | > 30 |  |  |  | > 30 |
| CN(CCOc1ccc(CC2SC(=O)NC2=O)cc1)c1ccccn1 (stereo not drawn) [ROSIGLITAZONE] | 8.6 | > 30 | > 30 | > 30 | > 30 |  | 14 | > 30 | > 30 |
| CC(C(=O)O)c1ccc2oc(-c3ccc(Cl)cc3)nc2c1 (stereo not drawn) [BENOXAPROFEN] | > 30 | > 30 | > 30 | > 30 | > 30 | > 30 | > 30 | > 30 | > 30 |
| Cc1nnc(SCC2=C(C(=O)O)N3C(=O)[C@@H](NC(=O)Cn4cnnn4)[C@H]3SC2)s1 [CEFAZOLIN] | > 300 | > 300 | > 300 | > 300 | > 300 | > 300 | > 300 | > 300 | > 300 |
| Clc1ccc(Cn2c(CN3CCCC3)nc3ccccc32)cc1 [CLEMIZOLE] | > 10 | > 10 | > 30 | > 30 | > 30 | > 30 |  | > 30 |  |
| CNC(=C[N+](=O)[O-])NCCSCc1csc(CN(C)C)n1 [NIZATIDINE] | > 10 | > 10 | > 10 |  | > 10 | > 10 | > 10 | > 10 | > 10 |
| CCCCCCCN(CC)CCCC(O)c1ccc(NS(C)(=O)=O)cc1 (stereo not drawn) [IBUTILIDE] | > 30 | > 30 | > 30 | > 30 | > 30 |  | > 30 | > 30 | > 30 |
| Cc1onc(-c2c(F)cccc2Cl)c1C(=O)N[C@@H]1C(=O)N2[C@@H]1SC(C)(C)[C@@H]2C(=O)O [FLOXACILLIN] | > 30 | > 30 | > 30 | > 30 | > 30 | > 30 | > 30 | > 30 | > 30 |
| CC(C)Cc1ccc([C@H](C)C(=O)O)cc1 [DEXIBUPROFEN] | > 30 | > 30 | > 30 | > 30 | > 30 | > 30 | > 30 | > 30 | > 30 |
| S=P(N1CC1)(N1CC1)N1CC1 [THIOTEPA] | 14 | > 30 | > 30 | > 30 | > 30 | > 10 | 1.6 | > 30 | > 30 |
| CCC(=O)O[C@]1(C(=O)CCl)[C@@H](C)C[C@H]2[C@@H]3CCC4=CC(=O)C=C[C@]4(C)[C@@]3(F)[C@@H](O)C[C@@]21C [CLOBETASOL PROPIONATE] | > 30 |  | > 30 | > 30 | > 30 |  | > 30 | > 30 |  |
| CCOc1cc([C@@H](CS(C)(=O)=O)N2C(=O)c3cccc(NC(C)=O)c3C2=O)ccc1OC | > 30 | > 30 | > 30 | > 30 | > 30 | > 30 | 4.5 | > 30 | > 30 |
| CNC[C@H](O)c1ccc(O)c(O)c1 [EPINEPHRINE] |  | > 30 | > 30 | > 30 |  |  | > 30 |  | > 30 |
| Cn1cc(C(=O)[C@@H]2CCc3nc[nH]c3C2)c2ccccc21 [RAMOSETRON] | 4.3 | > 30 | > 30 | > 30 | > 30 |  | 20 | > 30 | > 30 |
| CCCNC(=O)NS(=O)(=O)c1ccc(Cl)cc1 [CHLORPROPAMIDE] | > 10 | > 10 | > 30 | > 10 | > 10 | > 10 | > 10 | > 10 |  |
| COc1cc(C(=O)NS(=O)(=O)c2ccccc2C)ccc1Cc1cn(C)c2ccc(NC(=O)OC3CCCC3)cc12 [ZAFIRLUKAST] |  | > 10 | > 10 | > 10 | > 10 |  |  | > 10 | 11.2 |
| CN1Cc2c(N)cccc2C(c2ccccc2)C1 (stereo not drawn) [NOMIFENSINE] | > 30 | > 30 | > 30 | > 30 |  |  |  | > 30 | > 30 |
| CC(C)NC(=N)NC(=N)Nc1ccc(Cl)c(Cl)c1 [CHLORPROGUANIL] | > 30 |  |  |  |  | > 30 | 12.2 | > 30 |  |
| CC(CN1c2ccccc2Sc2ccccc21)N(C)C (stereo not drawn) [PROMETHAZINE] |  | > 10 | > 30 | > 10 | > 10 | > 10 | 1.4 | > 10 |  |
| CC[C@H](C)C(=O)O[C@H]1C[C@@H](C)C=C2C=C[C@H](C)[C@H](CC[C@@H]3C[C@@H](O)CC(=O)O3)[C@H]21 [LOVASTATIN] | > 10 | > 10 | > 30 | > 10 | > 10 | > 10 | 23 | > 10 |  |
| CC(C)C[C@H](NC(=O)[C@@H](O)[C@H](N)Cc1ccccc1)C(=O)O [UBENIMEX] | > 30 | > 30 |  |  | > 30 | > 30 | > 30 | > 30 | > 30 |
